From patent publication US8652525B2, “NSAID delivery from polyarylates” (TYRX, Inc., priority 2008, dated 2014)

Assays:
[1] = p(10% DT, DTE succinate) solvent cast film, 20% loading
Method: 1 ml of the buffer was withdrawn periodically and run through the HPLC system described in Example 1.
Naproxen was formulated at 20% loading in a matrix of p(10% DT, DTE succinate) by solvent casting from methylene chloride and assessed for long-term release.

[2] = tested on: post-operative pain; conditions: after cesarean delivery; comparator ropivacaine continuous wound infiltration with intravenous (iv) diclofenac; cited from earlier work
[3] = given orally for systemic distribution; cited from earlier work
[4] = In vitro release profile of ketoprofen-loaded microparticles using dialysis tubes; type: physicochemical; conditions: p(10% DT, DTE succinate) microparticles 125-180 μm, 40% loading
Method: The p(10% DT, DTE succinate) was dried at 40° C. for 3 days and analyzed. 4.8 g of polymer was placed in a plastic beaker and topped with an excess of ethanol. The polymer was allowed to stand in ethanol at 50° C. for 2-3 hours. […] After overnight drying, the polymer/drug mixture was ground using a coffee grinder (overhead design). First, the polymer/drug mixture was cooled in liquid nitrogen. Then the polymer-drug mass was mixed with ground dry ice, added to the container of the grinder and ground at the highest speed for at least 5 min. The whole mixture of dry ice plus polymer/drug powder was transferred into a beaker, covered with Kimwipes™ and placed into a vacuum oven at 40° C. to dry overnight.
The in vitro release profile of the microparticles was determined using dialysis tubes.

[5] = Ketoprofen release studies from polyarylate films and microparticles in phosphate buffered saline, HPLC; conditions: for ketoprofen release rate: p(10% DT, DTE succinate) film; for ketoprofen released per day: p(10% DT, DTE succinate) solvent cast film
[6] = p(10% DT, DTE adipate), PBS pH 7.4, 37° C.
[7] = p(10% DT, DTE succinate) melt processed, compression molded film

## COc1ccc2cc([C@H](C)C(=O)O)ccc2c1 [Naproxen]
[1]
  drug released per day: 1 % per day
  release kinetics: zero order kinetics
  time until release is complete: about 3 months

## O=C(O)Cc1ccccc1Nc1c(Cl)cccc1Cl [diclofenac]
[2]
  efficacy of continuous wound infiltration versus comparator: more effective

## CC(C(=O)O)c1cccc(C(=O)c2ccccc2)c1 (centres unmarked) [ketoprofen]
[3]
  effective plasma concentration range: 1,000-4,000 ng/mL
[4]
  ketoprofen release after 6 days: 100%
  ketoprofen released within 24 hours: About 50%
[5]; DTO polymers, PBS pH 7.4, 37° C.
  ketoprofen release mechanism (shape of the release curve): diffusion controlled
[5]; microparticles milled from compression molded p(10% DT, DTE succinate) film, all sizes
  ketoprofen release kinetics: fairly linear release
[5]; microparticles milled from compression molded p(10% DT, DTE succinate) film, largest particles (>500 microns)
  time until ketoprofen release is completed: about 60 days
[5]; microparticles milled from compression molded p(10% DT, DTE succinate) film, smallest particles (212 to 425 microns)
  time until ketoprofen release is completed: about 40 days
[5]; p(10% DT, DTE adipate), after initial burst, PBS pH 7.4, 37° C.
  ketoprofen release kinetics: approximately zero order kinetics
[5]; [6]
  duration of ketoprofen release: 2 weeks
  initial burst of ketoprofen release: 20%
[5]; HMW polymer (94,000)
  ketoprofen release rate: about 3 % per day
[5]; LMW polymer (67,800)
  ketoprofen release rate: about 5 % per day
[5]; [7]
  ketoprofen release kinetics: zero order kinetics
  rate of ketoprofen release: 1.3 % per day
[5]; 10% loading, PBS pH 7.4, 37° C.
  ketoprofen released per day: about 2 % per day
[5]; 20% loading, PBS pH 7.4, 37° C.
  ketoprofen released per day: 5 % per day
[5]; 30% loading, PBS pH 7.4, 37° C.
  ketoprofen released per day: 6 % per day
[5]; 40% loading, PBS pH 7.4, 37° C.
  ketoprofen released per day: about 8 % per day
[5]; p(10% DT, DTE succinate) solvent cast films, all four loadings 10%, 20%, 30%, 40%
  ketoprofen release kinetics: zero order kinetics
